In patent publication US20130115286A1, “ORAL ADMINISTRATION FORMS FOR CONTROLLED RELEASE OF RIFAMPICIN FOR THE TREATMENT OF BACTERIAL INFECTIONS AND INFLAMMATORY DISEASES OF THE GASTROINTESTINAL TRACT” (priority 2010, published 2013):

How the values were obtained:
[1] = cited from earlier work
[2] = oral, 600 mg, healthy volunteers; cited from earlier work
[3] = Stability tests on rifampicin in acid, neutral and basic environments (FIG. 1); assay type: physicochemical
[4] = determined by the intestinal pH values; cited from earlier work
[5] = in vivo, cited from earlier work

Q: Which pKa [1] does the source give for `CO[C@H]1/C=C/O[C@@]2(C)Oc3c(C)c(O)c4c(O)c(c(/C=N/N5CCN(C)CC5)c(O)c4c3C2=O)NC(=O)/C(C)=C\C=C\[C@H](C)[C@H](O)[C@@H](C)[C@@H](O)[C@@H](C)[C@H](OC(C)=O)[C@@H]1C` [rifampicin] here?
A: 1.7

Q: And the “maximum blood concentration (Cmax)” value [2]?
A: 9000 ng/mL

Q: What about the stability ([3]; acid environment) of the same compound?
A: less stable

Q: And the stability ([3]; neutral and weakly alkaline environments)?
A: sufficiently stable

Q: And the “solubility in the intestine” value [4]?
A: 1000 to 6000 µg/mL

Q: What about the “dose eliminated in the urine” value ([5]; po) of the same compound?
A: approx. 20 % of the dose

Q: What about the “amount present in the plasma relative to that eliminated by the renal route” value [5] of the same compound?
A: 5 times
